Measurements taken from publication PMC11328603 (Journal of Enzyme Inhibition and Medicinal Chemistry, 2024).

Target: Escherichia coli β-glucuronidase (EcGUS) (Escherichia coli, UniProt P05804)
Assay: PNPG hydrolysis assay, Lineweaver-Burk kinetics
Assay type: biochemical

Escherichia coli β-glucuronidase (EcGUS), sequence (P05804 whole entry): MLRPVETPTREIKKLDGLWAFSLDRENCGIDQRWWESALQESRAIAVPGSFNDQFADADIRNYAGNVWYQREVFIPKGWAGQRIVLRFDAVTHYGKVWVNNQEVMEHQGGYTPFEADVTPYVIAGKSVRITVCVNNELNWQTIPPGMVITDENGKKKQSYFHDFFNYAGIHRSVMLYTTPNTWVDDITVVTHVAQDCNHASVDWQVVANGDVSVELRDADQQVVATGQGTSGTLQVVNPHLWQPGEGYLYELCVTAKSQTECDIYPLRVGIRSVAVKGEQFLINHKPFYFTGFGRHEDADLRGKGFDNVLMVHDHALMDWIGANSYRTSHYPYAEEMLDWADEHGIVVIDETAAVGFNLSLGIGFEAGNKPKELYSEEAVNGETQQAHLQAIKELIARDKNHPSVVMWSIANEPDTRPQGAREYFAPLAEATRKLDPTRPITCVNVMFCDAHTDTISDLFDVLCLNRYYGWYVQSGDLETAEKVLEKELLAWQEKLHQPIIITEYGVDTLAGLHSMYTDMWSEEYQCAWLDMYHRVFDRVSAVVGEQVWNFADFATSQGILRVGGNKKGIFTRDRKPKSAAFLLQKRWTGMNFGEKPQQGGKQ

Clc1ccc2c(c1)C(N1CCNCC1)=Nc1ccccc1O2 [AMX, amoxapine]
PNPG hydrolysis assay, Lineweaver-Burk kinetics: both AMX and E-9 acted as uncompetitive inhibitors against EcGUS
